Measurements published in article PMC8400257, “2-Phenoxy-3-Trichloromethylquinoxalines Are Antiplasmodial Derivatives with Activity against the Apicoplast of Plasmodium falciparum” (Pharmaceuticals, 2021).

Experiments:
[1] = system: P. falciparum ART-resistant strain F32-ART5; assay: Standard in vitro chemo-sensitivity assay, F32-ART5; format: cell-based; details: Plasmodium falciparum, F32, 48 h, read-out: Mean ± SEM EC50 values F32-ART5
Procedure: (§1) The Plasmodium falciparum ART-resistant strain F32-ART5 and its tween ART-sensitive strain F32-TEM [33, 41] were cultivated at 37 °C with 5% CO2 in human red blood cells (EFS, French Blood Bank) diluted to 2% hematocrit in RPMI-1640 medium (Biowest, Nuaillé, France) supplemented with 5% human serum (EFS, French Blood Bank), as previously reported.
(§2) The chemosensitivity assay was carried out in 96-well culture plates on synchronized ring-stage parasites at 1% parasitemia obtained after D-sorbitol treatment. The antiplasmodial activities were evaluated using the SYBR Green I method. Parasites were exposed for 48 h to a range of concentrations of the different tested compounds. Each drug concentration was tested in triplicates. Parasite pellets were then washed in 1× PBS prior to lysing red blood cells at −20 °C overnight. Then, the plates were thawed and 100 µL of each well were transferred into a black 96-well plate. Next, 100 µL per well of SYBR Green I (Thermo Fisher) diluted at a final concentration of 2× in lysis buffer (20 mM Tris base pH 7.5, 5 mM EDTA, 0.008% w/v saponin, 0.08% w/v Triton X-100) were added and left to incubate for 1 h at room temperature prior to reading the plates on BioTek FLx800 Microplate Fluorescence Reader (λexcitation = 485 nm, λemission = 528 nm). Relative EC50 values were determined using GraphPad Prism software.

[2] = system: P. falciparum ART-sensitive strain F32-TEM; assay: Standard in vitro chemo-sensitivity assay, F32-TEM; format: cell-based; details: Plasmodium falciparum, F32, 48 h, read-out: Mean ± SEM EC50 values F32-TEM
Procedure: as §1, §2

[3] = system: F32-ART5 and F32-TEM parasites; assay: Recrudescence assay; format: cell-based, Plasmodium falciparum; details: 48 h exposure; 2.5 µM 3i or 18 µM ART; log-rank Mantel-Cox test
Procedure: Recrudescence assay was performed to evaluate the ability of the F32-ART5 parasites to survive drug exposure comparatively to the F32-TEM parasites. D-sorbitol synchronized ring-stages at 3% parasitemia (2% hematocrit) were exposed to drug for 48 h. After drug exposure, parasite cultures were washed with RPMI-1640 medium and replaced in normal drug-free culture conditions. The time to parasite recrudescence was determined as the time required to reach the 3% initial parasitemia. […] Each experiment was performed for F32-ART5 and F32-TEM and cultivated in parallel in the same conditions to generate paired results. This was carried out at least three times independently. A statistical analysis (log-rank Mantel–Cox test) was carried out on data thanks to a Kaplan–Meier survival analysis (using GraphPad Prism software) considering censored data.
Figure S48. 13C NMR spectrum of 2i in CDCl3, on a Bruker ARX 101 spectrometer
2. […]
3. Studying the effect of (3i) on the liver stage development of P. falciparum Cryopreserved primary human hepatocytes were seeded in 96 well plates with a pre-determined seeding dose that gave a single dense layer of attached hepatocytes. […]
The culture medium with or without drugs was refreshed every 48 hours and two independent plates were studied. […] Plates were subjected to quantification using an automated plate scanner. […]

[4] = system: Pf3D7 (3D7 chloroquine-sensitive strain); details: Figure 2; cited from earlier work
[5] = system: PfFCR-3 (FCR-3 multidrug-resistant strain); design: method as in PMID 28291694; details: Figure 2; cited from earlier work
[6] = system: HepG2; details: Figure 2; cited from earlier work

| SMILES | EC50 [1] [nM] | EC50 [2] [nM] | Recrudescence of F32-ART5 compared with F32-TEM after drug exposure [3] | EC50 [4] [nM] | EC50 [5] [nM] | CC50 [6] [nM] |
| --- | --- | --- | --- | --- | --- | --- |
| C[C@@H]1CC[C@H]2[C@@H](C)C(=O)O[C@@H]3O[C@@]4(C)CC[C@@H]1[C@]32OO4 [Artemisinin, reference compound] | 11 ± 3 | 19 ± 3 | significant faster |  |  |  |
| Cc1c(/C=N/Nc2ccnc3cc(Cl)ccc23)[n+]([O-])c2cc(Cl)ccc2[n+]1[O-] [QdNO 19] |  |  |  | 240 | 2800 | > 241000 |
